# Reference: article PMC11077991, “The small molecule CBR-5884 inhibits the Candida albicans phosphatidylserine synthase” (mBio, 2024)
# Read-outs that look alike come from different tables or passages of the source.
# Experiments:
# Format in all cases: cell-based, Candida albicans
# [1] = tested on: C. albicans strains GDH2346, 3153A, TFPY412 and TFPY2307; test: CLSI MIC broth microdilution, additional wild-type strains; conditions: RPMI MOPS pH 7.0, 37°C, 48 h
# Experimental: Furthermore, there are no current reports on the antifungal effects of LOC14 and CBR-5884. To rule out the possibility that their inhibition is strain-specific, we treated four additional C. albicans wildtype strains—GDH2346 ([54]), 3153A ([55]), and two clinical isolates TFPY412 and TFPY2307—with LOC14 and CBR-5884. Tests were done in RPMI MOPS (pH 7.0) medium at 37°C for 48 h following the CLSI MIC broth microdilution protocol, and a cho1ΔΔ strain was included as a control (Fig. 3E and F).
# Minimum inhibitory concentration (MIC) was determined following Clinical & Lab Standards Institute (CLSI) MIC broth microdilution protocol (Licensed to Todd Reynolds, license # Ord-1138682) ([98], [99]). Briefly, stock solutions of different compounds (purchased from MedChemExpress) were prepared at a concentration of 10 mM in DMSO and subsequently diluted as required in the same solvent. Wild-type C. albicans strain SC5314, as well as four additional wild-type strains—GDH2346, 3153A, TFPY412, and TFPY2307, were cultured overnight in YPD medium at 30°C, washed with water three times, and then diluted to a concentration of 2 × 10^3 cells/mL (OD600 = 0.00008) in one of the three media [minimal medium, minimal medium buffered with 50 mM HEPES (pH 7.0) and RPMI MOPS (pH 7.0)]. The cho1ΔΔ strain was also included as a control. […]
# [2] = tested on: wild-type C. albicans strain SC5314; test: CLSI MIC broth microdilution; conditions: Candida albicans
# Experimental: We then tested the effects of the six compounds on live cells by determining the minimal inhibitory concentrations (MICs) of these compounds. Following the standard Clinical & Lab Standards Institute (CLSI) MIC broth microdilution methods, wild-type C. albicans strain SC5314 was grown with avasimibe, CBR-5884, tideglusib, ebselen, ML-345, and LOC14 in RPMI MOPS medium (pH 7.0) or alternatively in minimal medium or minimal medium with HEPES (pH 7.0) at 37°C for 48 h, along with a cho1ΔΔ strain as a control (Fig. 3A through C). The concentration of the compounds was varied from 0.5 to 250 µM. […] Ebselen, LOC14, and CBR-5884, on the contrary, stopped cell growth at different concentrations in all three media, with MICs ranging between 7.8 and 31.3 μM (Fig. 3A through D). […] Specific MIC values are summarized in Fig. 3D for all the compounds.
# Minimum inhibitory concentration (MIC) was determined following Clinical & Lab Standards Institute (CLSI) MIC broth microdilution protocol (Licensed to Todd Reynolds, license # Ord-1138682) ([98], [99]). Briefly, stock solutions of different compounds (purchased from MedChemExpress) were prepared at a concentration of 10 mM in DMSO and subsequently diluted as required in the same solvent. Wild-type C. albicans strain SC5314, as well as four additional wild-type strains—GDH2346, 3153A, TFPY412, and TFPY2307, were cultured overnight in YPD medium at 30°C, washed with water three times, and then diluted to a concentration of 2 × 10^3 cells/mL (OD600 = 0.00008) in one of the three media [minimal medium, minimal medium buffered with 50 mM HEPES (pH 7.0) and RPMI MOPS (pH 7.0)]. The cho1ΔΔ strain was also included as a control. A volume of 100 µL from each cell suspension was dispensed into the wells of a flat-bottom 96-well plate. An additional 100 µL of corresponding medium, containing twice the final desired concentration of each drug, was added to each well, leading to a final initial inoculum of 1 × 10^3 cells/mL (OD600 = 0.00004). The final DMSO concentration was maintained at 2.5% across all treatments. Following preparation, the plates were incubated at 37°C for 48 h and photos were taken with a Bio-Rad Gel Doc XR + Imaging System.
# [3] = tested on: wild-type C. albicans strain SC5314; test: plate assays, CFU counting and growth curves in minimal media; conditions: for fungistatic or fungicidal effect (CFUs vs pre-incubation): 30 µM ebselen, 430 µM LOC14, 170 µM CBR-5884; for fungistatic or fungicidal effect (CFUs vs pre-incubation) / rescue of CFUs by 1 mM ethanolamine: 24 h; for rescue of CFUs by 1 mM ethanolamine: optimized drug concentrations (CBR-5884 ≥170 µM), minimal medium
# Experimental: The antifungal effects of ebselen, LOC14 ,and CBR-5884 on live cells were further evaluated by plate assays and growth curves. First, we tried to determine if the inhibitory effects of these compounds were fungistatic or fungicidal. It should be highlighted that in contrast to the MIC assays, the plate assays and growth curve analyses necessitated a greater initial inoculum (OD600 of 0.05 as opposed to 0.00004) for detection. Additionally, a reduced incubation temperature of 30°C instead of 37°C was required to inhibit the hyphal formation, which, in turn, required the adjustment of compound concentrations used. For this, wild-type C. albicans strain SC5314 was grown with varying concentrations of ebselen, LOC14, and CBR-5884 in minimal media at 30°C for 24 h, along with a cho1ΔΔ strain as a control. […] To further determine the optimized inhibitory concentrations and whether the inhibition is fungistatic or fungicidal, wild-type C. abicans SC5314 was then incubated with ebselen, LOC14, and CBR-5884 in a dosage series with 10 µM increments within the inhibition range determined above, and colony forming units (CFUs) were counted after 24 h incubation.
# Plate assays and growth curves were conducted in minimal media or minimal media supplemented with 1 mM ethanolamine (ETA). Wild-type SC5314 and cho1ΔΔ strains were grown in YPD overnight and washed three times with H2O before inoculation. The starting OD600 is 0.05 for both plate assays and growth curves. For plate assays, both wild-type and cho1ΔΔ strains were grown in flat-bottom 96-well plates at a final volume of 200 µL, in the presence of different compounds or DMSO as indicated at 30°C. The final DMSO concentration was maintained at 2.5% across all treatments. A Leica inverted microscope was then used to visualize growth after 24 h incubations. In the meantime, cells grown in different compounds were subjected to live cell counting. Cell cultures from flat-bottom 96-well plates after 24 h incubation were diluted 100–10,000 times before plating on the minimal media, and the total colony-forming unit (CFU) was kept within 200 for each plate. A total of six biological replicates were done in each condition.
# The growth curves with LOC14 and CBR-5884 treatments were measured from 2 to 30 h with OD600 measurements every 2 h. A final concentration of 170 µM CBR-5884, 430 µM LOC14, and 5 mM serine was added into each group as indicated. To test the stability of CBR-5884, minimal medium supplemented with 170 µM CBR-5884 or equivalent DMSO was agitated for 12 h before the introduction of wildtype C. albicans SC5314 strain, and growth curves were recorded from 0 to 14 h with OD600 measurement every 2 h. To check the resistance of C. albicans in CBR-5884, SC5314 strain was grown in 170 µM CBR-5884 for 12 and 24 h before being diluted in fresh minimal medium supplemented with fresh 170 µM CBR-5884 or equivalent DMSO. The growth curves were recorded from 0 to 14 h with OD600 measurement every 2 h. The final DMSO concentration was maintained at 1.7% across all treatments.
# [4] = SC5314, 48 h, pH 7, read-out: Minimal Inhibitory Concentration (MIC): MM, HEPES 7.0
# [5] = SC5314, 48 h, pH 7, read-out: Minimal Inhibitory Concentration (MIC): RPMI, MOPS 7.0
# [6] = SC5314, 48 h, read-out: MICs across all three media
# [7] = SC5314, 48 h, read-out: Minimal Inhibitory Concentration (MIC): MM
SMILES,growth inhibition of four additional wild-type strains [1],"MIC [2, 4]","MIC [2, 5]","MIC [2, 6]","MIC [2, 7]",fungistatic or fungicidal effect (CFUs vs pre-incubation) [3],"effect of ethanolamine on growth rate and lag time ([3]; 170 µM CBR-5884, 1 mM ethanolamine)","effect of 5 mM serine on growth inhibition ([3]; 170 µM CBR-5884, growth curve 0-30 h)","duration of growth delay ([3]; 170 µM CBR-5884, minimal medium, 30°C)",rescue of CFUs by 1 mM ethanolamine [3],"MIC ([2]; SC5314, RPMI MOPS pH 7.0, 37°C, 48 h, read-out: Minimal Inhibitory Concentration (MIC): RPMI, MOPS 7.0)","MIC ([2]; SC5314, minimal medium with 50 mM HEPES pH 7.0, 37°C, 48 h, read-out: Minimal Inhibitory Concentration (MIC): MM, HEPES 7.0)","MIC ([2]; SC5314, minimal medium, 37°C, 48 h, read-out: Minimal Inhibitory Concentration (MIC): MM)","MIC ([2]; SC5314, minimal medium, minimal medium HEPES, RPMI MOPS, 37°C, 48 h, read-out: MICs across all three media)",CFU/μL after 24 h incubation with ethanolamine ([3]; 30 µM ebselen + 1 mM ETA),"growth curve in presence or absence of ethanolamine ([3]; 430 µM LOC14, 0-30 h)"
CCOC(=O)c1sc(NC(=O)c2ccco2)c(SC#N)c1C [CBR-5884],all strains were inhibited,31.3 µM,31.3 µM,7.8 to 31.3 µM,7.8 µM,fungistatic effect,significantly increased the growth rate and decreased the lag time,serine did not help the cells recover,12 h,significantly higher CFUs,–,–,–,–,–,–
O=c1c2ccccc2[se]n1-c1ccccc1 [Ebselen],–,–,–,–,–,fungicidal effect,–,–,–,did not rescue,7.8 µM,15.6 µM,7.8 µM,7.8 to 31.3 µM,0 CFU/μL,–
O=C(C1CC1)N1CCN(Cn2sc3ccccc3c2=O)CC1 [LOC14],all strains were inhibited,15.6 µM,31.3 µM,7.8 to 31.3 µM,15.6 µM,fungistatic effect,–,–,–,did not rescue,–,–,–,–,–,no cells grew
